The numbers were not newly measured in US12295956B2, “Anti-viral compositions” (Calladine Pharmaceuticals Limited, priority 2018, dated 2025), which cites them from elsewhere.

The conditions of data set [1]: gentle heating to a pourable hot liquid.

As to `Nc1nc2c(ncn2COCCO)c(=O)[nH]1` [Aciclovir, aciclovir], in data set [1], the heat stability result is given as “relatively heat stable”. In addition, where the note is “hydrophobic solvent systems”, the “solubility in hydrophobic solvent systems” value is recorded as “almost totally insoluble”. Further, the solubility in water result (water) is recorded as “poor solubility in water”.
